From patent publication US10941132B2, “Pyrazole derivatives” (HUA MEDICINE (SHANGHAI) Ltd., priority 2016, dated 2021) come the findings set out here.

T1 sequence (P31424 21-1203): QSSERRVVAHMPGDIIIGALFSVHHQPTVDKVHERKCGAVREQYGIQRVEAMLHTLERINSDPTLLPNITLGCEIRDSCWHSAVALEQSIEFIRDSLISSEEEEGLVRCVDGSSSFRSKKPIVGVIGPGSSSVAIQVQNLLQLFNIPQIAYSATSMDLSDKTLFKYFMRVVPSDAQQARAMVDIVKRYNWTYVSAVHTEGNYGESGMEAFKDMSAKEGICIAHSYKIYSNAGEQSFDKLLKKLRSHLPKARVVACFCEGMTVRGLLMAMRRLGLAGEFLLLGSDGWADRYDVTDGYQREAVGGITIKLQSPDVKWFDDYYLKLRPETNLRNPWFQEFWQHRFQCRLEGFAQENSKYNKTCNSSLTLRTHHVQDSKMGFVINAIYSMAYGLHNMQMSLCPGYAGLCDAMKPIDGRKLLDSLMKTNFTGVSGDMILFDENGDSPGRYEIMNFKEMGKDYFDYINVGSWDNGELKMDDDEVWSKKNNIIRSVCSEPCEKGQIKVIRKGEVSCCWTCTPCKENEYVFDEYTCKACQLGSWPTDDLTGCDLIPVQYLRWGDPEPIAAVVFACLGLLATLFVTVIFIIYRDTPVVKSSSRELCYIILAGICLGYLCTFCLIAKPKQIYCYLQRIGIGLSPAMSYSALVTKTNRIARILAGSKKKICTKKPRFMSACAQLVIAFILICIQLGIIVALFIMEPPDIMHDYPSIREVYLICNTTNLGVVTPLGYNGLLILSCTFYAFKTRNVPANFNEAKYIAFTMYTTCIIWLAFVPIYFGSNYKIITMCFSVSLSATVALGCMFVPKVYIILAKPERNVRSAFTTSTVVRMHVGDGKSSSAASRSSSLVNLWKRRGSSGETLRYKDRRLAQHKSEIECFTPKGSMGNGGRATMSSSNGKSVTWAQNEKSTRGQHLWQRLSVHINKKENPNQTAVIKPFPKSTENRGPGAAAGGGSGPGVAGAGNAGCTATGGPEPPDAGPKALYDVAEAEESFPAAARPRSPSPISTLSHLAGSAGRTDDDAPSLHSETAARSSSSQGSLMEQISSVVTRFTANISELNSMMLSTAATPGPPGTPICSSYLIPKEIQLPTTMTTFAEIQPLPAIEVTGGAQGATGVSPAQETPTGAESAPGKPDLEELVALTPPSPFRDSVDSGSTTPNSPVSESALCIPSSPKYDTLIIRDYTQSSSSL

The first experiment has as its target T1, recombinant rat mGluR5 (Rattus norvegicus, UniProt P31424).
T1 construct: expressed in transfected cells
As to the kind of experiment: Functional calcium flux assay (FLIPR), antagonist evaluation against glutamate-evoked [Ca2+]i increase. The note with it: Table 1; HEK293 cells stably expressing recombinant rat mGluR5; 15 min incubation of test compound, then submaximal glutamate; read-out: IC50 value (FLIPR assay). It counts as cell-based. Here is the method: Functional Calcium Clux Assay Methodology
For functional assays, HEK293 cells stably expressing recombinant rat mGluR5 were seeded in 384-well plates and dye loaded using Fluo-8. Cells were then washed to remove the un-incorporated dye. Antagonist evaluation was performed following a 15 min incubation of the test compound followed by the addition of submaximal concentration of glutamate. Intracellular calcium ([Ca^2+]i) measurements were performed using a fluorometric imaging plate reader (FLIPR, Molecular Devices). The glutamate-evoked increase in [Ca^2′]i in the presence of the test compounds was compared to the response to glutamate alone (the positive control). Antagonist inhibition curves were fitted with a 4-parameter logistic equation giving IC50 values, and Hill coefficients using an iterative nonlinear curve fitting algorithm.
The tables below provide IC50 data in this assay. In the activity column, A=IC50>1,000 and ≤5,000 nM; B=IC50>500 and ≤1,000 nM and C=IC50≤500 nM.
For orientation: Calcium flux is commonly read through the fluorescence of an indicator in the cells.
Turning to `Cc1nn(-c2ccc(OC(F)(F)F)cc2)c(C(F)(F)F)c1C#Cc1ccccn1` [Compound 13, 2-((3-methyl-1-(4-(trifluoromethoxy)phenyl)-5-(trifluoromethyl)-1H-pyrazol-4-yl)ethynyl) pyridine], the half-maximal inhibitory concentration (IC50) (commonly the concentration at which inhibition is half-maximal) lay within 1000 to 5000 nM.

For the compound `CS(=O)(=O)c1ccc(-n2cc(C#Cc3ccccn3)cn2)cc1` [Compound 46, 2-((1-(4-(methylsulfonyl)phenyl)-1H-pyrazol-4-yl)ethynyl)pyridine], the IC50 lay within 500 to 1000 nM. On the same count and under the same terms, as for `FC(F)(F)Oc1ccc(-n2cc(C#Cc3ccncc3)cn2)cc1` [Compound 94, 4-((1-(4-(trifluoromethoxy)phenyl)-1H-pyrazol-4-yl)ethynyl)pyridine], the figure is 500 to 1000 nM; as for `FC(F)(F)Oc1ccc(-n2cc(C#Cc3ccccn3)c(Cl)n2)cc1` [Compound 40, 2-((3-chloro-1-(4-(trifluoromethoxy)phenyl)-1H-pyrazol-4-yl)ethynyl)pyridine], not above 500 nM; as for `COCCOc1ccc(-n2cc(C#Cc3ccccn3)cn2)cn1` [Compound 28, 2-(2-methoxyethoxy)-5-(4-(pyridin-2-ylethynyl)-1H-pyrazol-1-yl) pyridine], not above 500 nM.

As to `N#Cc1cc(F)cc(-n2cc(C#Cc3ccccn3)c(Cl)n2)c1` [Compound 38, 3-(3-chloro-4-(pyridin-2-ylethynyl)-1H-pyrazol-1-yl)-5-fluorobenzonitrile], the IC50 was not above 500 nM. Turning to `Cc1nn(-c2ccc(OC(F)(F)F)cc2)c(C)c1C#Cc1ncccn1` [Compound 14, 2-((3,5-dimethyl-1-(4-(trifluoromethoxy)phenyl)-1H-pyrazol-4-yl)ethynyl) pyrimidine], the IC50 is not above 500 nM. Still for that read-out and setting: next, `COc1c(C#Cc2ccccn2)cnn1-c1ccc(F)cc1` [Compound 51, 2-((1-(4-fluorophenyl)-5-methoxy-1H-pyrazol-4-yl)ethynyl)pyridine]: not above 500 nM; `Fc1ccc(-n2cc(C#Cc3cccnc3)cn2)cc1` [Compound 83, 3-((1-(4-fluorophenyl)-1H-pyrazol-4-yl)ethynyl)pyridine]: not above 500 nM. On the same count and under the same terms, as for `Cc1nn(-c2ccc(F)cn2)cc1C#Cc1ccccn1` [Compound 63, 5-fluoro-2-(3-methyl-4-(pyridin-2-ylethynyl)-1H-pyrazol-1-yl)], the figure is not above 500 nM; as for `Fc1cncc(-n2cc(C#Cc3ccccn3)cn2)c1` [Compound 33], not above 500 nM; as for `FC(F)(F)Oc1ccc(-n2cc(C#Cc3ccccn3)cn2)cc1` [Compound 90, 2-((1-(4-(trifluoromethoxy)phenyl)-1H-pyrazol-4-yl)ethynyl)pyridine], not above 500 nM. Take `Cc1nn(-c2ccc(F)cn2)c(C)c1C#Cc1ccccn1` [Compound 25, 2-(3,5-dimethyl-4-(pyridin-2-ylethynyl)-H-pyrazol-1-yl)-5-fluoropyridine]: the IC50 was not above 500 nM. For the compound `N#Cc1cc(F)cc(-n2cc(C#Cc3ccncc3)cn2)c1` [Compound 79, 3-fluoro-5-(4-(pyridin-4-ylethynyl)-1H-pyrazol-1-yl)benzonitrile], the half-inhibitory concentration (IC50) was not above 500 nM. For `Fc1ccc(-n2cc(C#Cc3cnccn3)cn2)cc1` [Compound 88, 2-((1-(4-fluorophenyl)-1H-pyrazol-4-yl)ethynyl)pyrazine], the IC50 was not above 500 nM. Still for that read-out and setting: next, `COc1nn(-c2ccc(OC(F)(F)F)cc2)c(C)c1C#Cc1ccccn1` [Compound 7, 2-((3-methoxy-5-methyl-1-(4-(trifluoromethoxy)phenyl)-1H-pyrazol-4-yl)ethynyl)pyridine]: not above 500 nM. On the same count and under the same terms, next, `Fc1ccc(-n2cc(C#Cc3ccccn3)c(Cl)n2)cc1` [Compound 42, 2-((3-chloro-1-(4-fluorophenyl)-1H-pyrazol-4-yl)ethynyl)pyridine]: not above 500 nM; `Cc1nn(-c2cc(F)cc(C#N)c2)c(C)c1C#Cc1ccccn1` [Compound 5]: not above 500 nM; `FC(F)(F)Oc1ccc(-n2ncc(C#Cc3ncccn3)c2Cl)cc1` [Compound 22]: not above 500 nM. On the same count and under the same terms, as for `Cc1c(C#Cc2ccccn2)cnn1-c1cc(F)cc(C#N)c1` [Compound 50, 3-fluoro-5-(5-methyl-4-(pyridin-2-ylethynyl)-1H-pyrazol-1-yl) benzonitrile], the figure is not above 500 nM; as for `N#Cc1cc(F)cc(-n2cc(C#Cc3ccccn3)cn2)c1` [Compound 75, 3-fluoro-5-(4-(pyridin-2-ylethynyl)-1H-pyrazol-1-yl)benzonitrile], not above 500 nM; as for `Cc1c(C#Cc2ccccn2)c(N(C)C)nn1-c1ccc(OC(F)(F)F)cc1` [Compound 16], 1000 to 5000 nM. As to `COc1nn(-c2ccc(F)cc2)c(C)c1C#Cc1ccccn1` [Compound 8, 2-((1-(4-fluorophenyl)-3-methoxy-5-methyl-1H-pyrazol-4-yl)ethynyl)pyridine], the IC50 is not above 500 nM. On the same count and under the same terms, next, `FC(F)(F)c1ccc(-n2ncc(C#Cc3ncccn3)c2Cl)cc1` [Compound 36, 2-((5-chloro-1-(4-(trifluoromethyl)phenyl)-1H-pyrazol-4-yl)ethynyl) pyrimidine]: not above 500 nM; `Cc1nn(-c2ccc(F)cc2)c(C)c1C#Cc1ccccn1` [Compound 1]: not above 500 nM.

Still in this experiment, the particulars now being: Table 2; HEK293 cells stably expressing recombinant rat mGluR5; 15 min incubation of test compound, then submaximal glutamate; read-out: IC50 (FLIPR assay).
For `Cc1cc(C#Cc2cccnc2)nn1-c1ccc(OC(F)(F)F)cc1` [Compound 132, 3-((5-methyl-1-(4-(trifluoromethoxy)phenyl)-1H-pyrazol-3-yl)ethynyl)pyridine], the IC50 is 1000 to 5000 nM.

`Fc1ccc(-n2ccc(C#Cc3ccccn3)n2)cc1` [Compound 112, 2-((1-(4-fluorophenyl)-1H-pyrazol-3-yl)ethynyl)pyridine]: the concentration for half-maximal inhibition (IC50) is not above 500 nM. As for `Fc1ccc(-n2ccc(C#Cc3ccnc(Cl)c3)n2)cc1` [Compound 116, 2-chloro-4-((1-(4-fluorophenyl)-1H-pyrazol-3-yl)ethynyl)pyridine], the half-maximal inhibitory concentration (IC50) is not above 500 nM. The same measure, in the same setting: next, `Fc1ccc(-n2ccc(C#Cc3ccncc3)n2)cc1` [Compound 118, 4-((1-(4-fluorophenyl)-1H-pyrazol-3-yl)ethynyl)pyridine]: not above 500 nM; `Cc1cc(C#Cc2ccccn2)nn1-c1ccc(OC(F)(F)F)cc1` [Compound 136, 2-((5-methyl-1-(4-(trifluoromethoxy)phenyl)-1H-pyrazol-3-yl)ethynyl)pyridine]: not above 500 nM; `Cc1cc(C#Cc2ccccn2)nn1-c1cc(F)cc(C#N)c1` [Compound 97, 3-fluoro-5-(5-methyl-3-(pyridin-2-ylethynyl)-1H-pyrazol-1-yl) benzonitrile]: not above 500 nM. On the same count and under the same terms, next, `Fc1ccc(-n2cc(Cl)c(C#Cc3ccccn3)n2)nc1` [Compound 69, 2-(4-chloro-3-(pyridin-2-ylethynyl)-1H-pyrazol-1-yl)-5-fluoropyridine]: 500 to 1000 nM. Still for that read-out and setting: next, `Cc1cc(C#Cc2ncccn2)nn1-c1ccc(OC(F)(F)F)cc1` [Compound 133, 2-((5-methyl-1-(4-(trifluoromethoxy)phenyl)-1H-pyrazol-3-yl)ethynyl)pyrimidine]: 1000 to 5000 nM; `FC(F)(F)Oc1ccc(-n2ccc(C#Cc3ccccc3)n2)cc1` [Compound 120]: 1000 to 5000 nM. `Cc1cc(C#Cc2ccncc2)nn1-c1cc(F)cc(C#N)c1` [Compound 102, 3-fluoro-5-(5-methyl-3-(pyridin-4-ylethynyl)-1H-pyrazol-1-yl) benzonitrile]: the IC50 is not above 500 nM. With `Fc1ccc(-n2ccc(C#Cc3cccnc3)n2)cc1` [Compound 114, 3-((1-(4-fluorophenyl)-1H-pyrazol-3-yl)ethynyl)pyridine], the IC50 lay within 1000 to 5000 nM.

In the case of `Cc1cc(C#Cc2ncccn2)nn1-c1ccc(F)cc1` [Compound 128, 2-((1-(4-fluorophenyl)-5-methyl-1H-pyrazol-3-yl)ethynyl)], the IC50 lay within 1000 to 5000 nM. On the same count and under the same terms, next, `Cc1cc(C#Cc2cccc(Cl)c2)nn1-c1cc(F)cc(C#N)c1` [Compound 99, 3-(3-((3-chlorophenyl)ethynyl)-5-methyl-1H-pyrazol-1-yl)-5-fluorobenzonitrile]: not above 500 nM; `Fc1ccc(-n2ccc(C#Cc3ncccn3)n2)cc1` [Compound 117, 2-((1-(4-fluorophenyl)-1H-pyrazol-3-yl)ethynyl)pyrimidine]: 500 to 1000 nM. Same read-out and setting: as for `Cc1cc(C#Cc2ccccc2)nn1-c1cc(F)cc(C#N)c1` [Compound 96, 3-fluoro-5-(5-methyl-3-(phenylethynyl)-1H-pyrazol-1-yl) benzonitrile], the figure is not above 500 nM; as for `Fc1ccc(-n2ccc(C#Cc3cccc(Cl)c3)n2)cc1` [Compound 115, 3-((3-chlorophenyl)ethynyl)-1-(4-fluorophenyl)-1H-pyrazole], 500 to 1000 nM; as for `Fc1ccc(-n2ccc(C#Cc3ccccn3)n2)nc1` [Compound 67, 5-fluoro-2-(3-(pyridin-2-ylethynyl)-1H-pyrazol-1-yl)pyridine], not above 500 nM. Take `Cc1cc(C#Cc2cccnc2)nn1-c1ccc(F)cc1` [Compound 127, 3-((1-(4-fluorophenyl)-5-methyl-1H-pyrazol-3-yl)ethynyl)pyridine]: the IC50 is 1000 to 5000 nM.

On to `FC(F)(F)Oc1ccc(-n2ccc(C#Cc3cccnc3)n2)cc1` [Compound 121, 3-((1-(4-(trifluoromethoxy)phenyl)-1H-pyrazol-3-yl)ethynyl) pyridine], for which the IC50 was in the range of 1000 to 5000 nM.
